# Source: ChEMBL document CHEMBL1133411, “The design, synthesis and activity of non-ATP competitive inhibitors of pp60(c-src) tyrosine kinase. Part 2: hydroxyindole derivatives” (Bioorg Med Chem Lett, 2000)
# Active and inactive are the calls of the source.
# Biological target: Proto-oncogene tyrosine-protein kinase Src (Homo sapiens) (UniProt P12931)
# Test: Percent inhibition against human recombinant p60 c-Src tyrosine kinase at 500 uM
# Proto-oncogene tyrosine-protein kinase Src (Homo sapiens), sequence (P12931 2-536 limits assumed): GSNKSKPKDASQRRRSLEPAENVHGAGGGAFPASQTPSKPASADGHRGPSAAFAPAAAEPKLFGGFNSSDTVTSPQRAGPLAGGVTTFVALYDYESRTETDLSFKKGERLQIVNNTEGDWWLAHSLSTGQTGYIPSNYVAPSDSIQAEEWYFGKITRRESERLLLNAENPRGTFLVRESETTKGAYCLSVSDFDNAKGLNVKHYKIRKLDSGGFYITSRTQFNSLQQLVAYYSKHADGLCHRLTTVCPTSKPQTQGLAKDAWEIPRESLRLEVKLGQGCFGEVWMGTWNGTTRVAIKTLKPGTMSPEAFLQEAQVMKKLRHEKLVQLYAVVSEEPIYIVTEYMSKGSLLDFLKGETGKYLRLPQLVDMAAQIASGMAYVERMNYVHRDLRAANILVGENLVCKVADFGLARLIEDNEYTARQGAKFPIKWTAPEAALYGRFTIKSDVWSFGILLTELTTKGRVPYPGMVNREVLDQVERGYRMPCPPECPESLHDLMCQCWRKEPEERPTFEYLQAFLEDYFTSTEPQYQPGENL
row,inhibition [%],Structure (SMILES)
1,40,COC(=O)c1cc2cc(O)ccc2[nH]1

# Biological target: Proto-oncogene tyrosine-protein kinase Src (Homo sapiens) (UniProt P12931)
# Test: Percent inhibition of human recombinant p60 c-Src tyrosine kinase at 100 uM (inactive)
row,inhibition,Structure (SMILES)
1,inactive,O=C(O)c1ccc(CNC(=O)c2cc3cc(O)ccc3[nH]2)cc1

# Biological target: Proto-oncogene tyrosine-protein kinase Src (Homo sapiens) (UniProt P12931)
# Test: Percent inhibition determined against human recombinant p60 c-Src tyrosine kinase at 100 uM
row,Structure (SMILES),inhibition [%]
1,C[C@H](NC(=O)c1cc2cc(O)ccc2[nH]1)c1cccc(O)c1,13
2,O=C(Nc1ccc(O)cc1)c1cc2cc(O)ccc2[nH]1,45
3,COC(=O)Cc1ccc(NC(=O)c2cc3cc(O)ccc3[nH]2)cc1,32
4,CCOC(=O)c1cc2cc(O)c(O)cc2[nH]1,28
5,C[C@@H](NC(=O)c1cc2cc(O)ccc2[nH]1)c1cccc(O)c1,15
6,O=C(NCc1ccc(O)cc1)c1cc2ccccc2[nH]1,36
7,COC(=O)c1ccc(CNC(=O)c2cc3cc(O)ccc3[nH]2)cc1,11
8,COc1cccc(NC(=O)c2cc3cc(O)ccc3[nH]2)c1,21
9,COc1ccccc1NC(=O)c1cc2cc(O)ccc2[nH]1,3
10,O=C(Nc1cccc(O)c1)c1cc2cc(O)ccc2[nH]1,30
11,O=C(Nc1cccc(F)c1)c1cc2cc(O)ccc2[nH]1,21
12,O=C(O)Cc1ccc(NC(=O)c2cc3cc(O)ccc3[nH]2)cc1,7
13,COc1ccc(CNC(=O)c2cc3cc(O)ccc3[nH]2)cc1,18

# Further lines, results first:
row,inhibition [%],Structure (SMILES)
1,54,O=C(NCc1ccc(O)cc1)c1cc2cc(O)ccc2[nH]1
2,43,O=C(Nc1ccccc1O)c1cc2cc(O)ccc2[nH]1
3,74,O=C(NCc1cccc(O)c1)c1cc2cc(O)ccc2[nH]1
4,24,O=C(NCc1ccccc1O)c1cc2cc(O)ccc2[nH]1
5,21,COc1ccccc1CNC(=O)c1cc2cc(O)ccc2[nH]1
6,57,O=C(NCc1cccc(F)c1)c1cc2cc(O)ccc2[nH]1
